Measured values taken from paper PMC7725506, “Functional Diversification of SRSF Protein Kinase to Control Ubiquitin-Dependent Neurodevelopmental Signaling” (Developmental Cell, 2020).

Key:
SRPK2 = molecular target: T1, SRPK2 (Mus musculus, UniProt O54781); test: SRPK2 immunoprecipitation kinase assay from inhibitor-treated mESCs with RNF12 as substrate; type: cell-based; conditions: mESCs pre-treated with 10 μM for 4 h
T1 construct: endogenous in cells; host or cells: mESCs (CCE line)
Procedure: (§1) SRSF phosphorylation, SRPK1, SRPK2, and ERK1/2 levels were determined by immunoblotting. Expected positions of SRSFs that are not detected are shown in gray. Quantification of SRSF phosphorylation (Right). Data represented as mean ± SEM (n = 4). […] Neuro 2a is a control for exon 16b exclusion in differentiated cells (Bottom). Data represented as mean ± SEM (n = 3). […] Exon 16 inclusion: (^∗∗∗∗) p < 0.0001, Exon 16b inclusion: (^∗) p = 0.0164, p = 0.0485, and p = 0.0489 (left to right). Ratio exon 16b/16: (^∗∗∗∗) p < 0.0001, (^∗∗∗) p = 0.0003. (C) SRPK substrates predicted using ScanProsite and grouped according to UniProt functions. (D) RNF12 phosphorylation sites detected by mass-spectrometry. LZL, leucine-zipper like; NLS, nuclear localization signal; NES, nuclear export signal; RING, RING E3 ubiquitin ligase catalytic domain. (E) CMGC family kinase copy numbers in mESCs determined by quantitative proteomics and represented using Kinoviewer. (F) CMGC kinase (200 mU) phosphorylation of the RNF12 SR-motif in vitro was determined by immunoblotting for RNF12 phospho-Ser214 and total RNF12. […] Normalized RNF12 Ser214 phosphorylation is shown below. Data represented as mean ± SEM (n = 3). […] RNF12 SR-motif phosphorylation was analyzed by immunoblotting for RNF12 phospho-Ser214 and RNF12. SRPK1 and SRPK2 levels are shown as a loading control, Related to Figure S1; Tables S1 and S2. […]

[1] = molecular target: 50 representative kinases; test: Kinase inhibitor profiling, in vitro kinase assays for 50 representative kinases; type: biochemical; conditions: 1 μM, SRPK1 compared with 49 other kinases
Procedure: Kinase activity towards specific peptides was assessed in comparison to DMSO control. Full details are available at http://www.kinase-screen.mrc.ac.uk/services/express-screen.
Supplemental Figure Legends
Figure S1. Differential inhibitor sensitivities and expression profiles of SRPK kinases (Related to Figure 1). (A) Wild-type (WT) mESCs were analysed for protein copy number by absolute quantitative proteomics. SRPK1, SRPK2 and SRPK3 protein copy numbers are shown.
Data are represented as mean ± S.E.M. (n=3). Unpaired Student’s t test, two-sided, confidence level 95%. (****) P<0.0001. ND = not detected. (B) Inhibition of RNF12 phosphorylation in vitro by SRPK1 and SRPK2 in the presence of varying concentrations of the indicated SRPK inhibitors was determined by immunoblotting for RNF12 phospho-Ser214 (Left). RNF12 levels are shown as a control. Immunoblots were quantified to generate SRPK inhibitor dose-response curves for inhibition of RNF12 phosphorylation by SRPK1 and SRPK2 in vitro (Right). (C) WT, Srpk1-/- and Srpk2-/- mESCs were cultured and SRPK protein expression was analysed via immunoblotting. […]
SR-motif phosphorylation of HA-immunoprecipitated RNF12 analysed by phos-tag immunoblotting. […]
(DYRK1A inhibitor), WEHI-345 (RIPK2 inhibitor), IRAK-4-Inhibitor-a (IRAK4 inhibitor) and GSK-461364 (PLK1/2 inhibitor) for 4 h, and RNF12 phosphorylation analysed via phos-tag immunoblotting. […]

SRPK1 = molecular target: T2, SRPK1 (Mus musculus, UniProt O70551); test: SRPK1 immunoprecipitation kinase assay from inhibitor-treated mESCs with RNF12 as substrate; type: cell-based; conditions: mESCs pre-treated with 10 μM for 4 h
T2 construct: endogenous in cells; host or cells: mESCs (CCE line)
T2 sequence (O70551 whole entry): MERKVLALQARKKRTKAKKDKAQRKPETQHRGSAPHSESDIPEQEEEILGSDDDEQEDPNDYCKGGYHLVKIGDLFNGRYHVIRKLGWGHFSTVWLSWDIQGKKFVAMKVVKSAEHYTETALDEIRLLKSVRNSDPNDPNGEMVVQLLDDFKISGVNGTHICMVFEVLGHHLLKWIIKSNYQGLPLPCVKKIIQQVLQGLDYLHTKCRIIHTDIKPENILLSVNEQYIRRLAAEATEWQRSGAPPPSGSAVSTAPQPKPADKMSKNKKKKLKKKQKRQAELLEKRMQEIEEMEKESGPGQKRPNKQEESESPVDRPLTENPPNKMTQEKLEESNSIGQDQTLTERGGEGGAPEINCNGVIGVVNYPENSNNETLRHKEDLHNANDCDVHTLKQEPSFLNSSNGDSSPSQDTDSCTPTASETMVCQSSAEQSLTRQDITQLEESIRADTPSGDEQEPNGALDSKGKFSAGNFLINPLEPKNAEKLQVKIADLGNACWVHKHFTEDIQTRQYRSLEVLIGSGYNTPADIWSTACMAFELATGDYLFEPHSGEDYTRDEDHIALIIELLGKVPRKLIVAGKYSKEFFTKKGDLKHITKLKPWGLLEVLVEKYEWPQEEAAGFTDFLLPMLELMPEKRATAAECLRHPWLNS
Procedure: as §1

T1 sequence (O54781 whole entry): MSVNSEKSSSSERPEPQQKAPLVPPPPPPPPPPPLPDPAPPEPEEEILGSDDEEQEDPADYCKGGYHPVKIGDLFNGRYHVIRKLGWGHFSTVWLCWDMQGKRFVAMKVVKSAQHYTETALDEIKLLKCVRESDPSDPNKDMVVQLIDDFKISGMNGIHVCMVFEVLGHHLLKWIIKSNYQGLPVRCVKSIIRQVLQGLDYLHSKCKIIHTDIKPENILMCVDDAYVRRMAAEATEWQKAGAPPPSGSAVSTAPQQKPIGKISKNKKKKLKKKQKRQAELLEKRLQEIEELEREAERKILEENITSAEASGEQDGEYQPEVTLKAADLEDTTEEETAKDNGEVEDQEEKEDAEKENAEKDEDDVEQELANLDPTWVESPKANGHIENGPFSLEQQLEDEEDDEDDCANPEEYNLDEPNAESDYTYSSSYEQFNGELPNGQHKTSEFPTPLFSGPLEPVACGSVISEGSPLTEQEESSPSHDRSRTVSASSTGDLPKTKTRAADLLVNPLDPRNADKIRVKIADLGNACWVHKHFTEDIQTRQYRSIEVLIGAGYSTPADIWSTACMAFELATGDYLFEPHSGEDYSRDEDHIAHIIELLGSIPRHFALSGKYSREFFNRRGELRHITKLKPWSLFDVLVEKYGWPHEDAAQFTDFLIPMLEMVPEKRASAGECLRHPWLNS

Which “inhibition of SRPK2 in vivo (ability of immunoprecipitates to phosphorylate RNF12)” value (SRPK2) does the source give for CCc1cc2c(cc1-c1cccc(S(=O)(=O)F)c1)C(C)(C)c1[nH]c3cc(C#N)ccc3c1C2=O [SRPKIN-1] here?
The value was “potently inhibited”.

And the kinase inhibition specificity [1]?
Its kinase inhibition specificity is “highly specific”.

And the “inhibition of SRPK1 in vivo (ability of immunoprecipitates to phosphorylate RNF12)” value (SRPK1)?
Its value is “potently inhibited”.
